Test results reported in patent publication US10670605B2, “Cysteine reactive probes and uses thereof” (The Scripps Research Institute, priority 2015, dated 2020).
Structures can show the parent of a compound that is named as a salt.

Tests used:
Assay in all cases: isoTOP-ABPP of compound-treated primary human T cells
Type in all cases: cell-based
[1] = biological target: T1, Cys residues in primary human T cells (Homo sapiens, UniProt Q96Q11); conditions: TRNT1 C373 (Q96Q11)
T1 sequence (Q96Q11 42-434): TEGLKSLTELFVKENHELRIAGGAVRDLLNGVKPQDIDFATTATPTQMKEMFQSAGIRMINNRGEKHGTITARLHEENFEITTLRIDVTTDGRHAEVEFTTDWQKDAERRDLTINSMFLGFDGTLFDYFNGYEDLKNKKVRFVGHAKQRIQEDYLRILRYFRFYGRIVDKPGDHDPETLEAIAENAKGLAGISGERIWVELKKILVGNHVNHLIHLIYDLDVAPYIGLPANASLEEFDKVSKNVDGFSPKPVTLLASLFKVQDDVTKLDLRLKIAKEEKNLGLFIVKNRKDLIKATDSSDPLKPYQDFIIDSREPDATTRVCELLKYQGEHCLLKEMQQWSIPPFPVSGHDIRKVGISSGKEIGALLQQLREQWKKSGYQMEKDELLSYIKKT

[2] = biological target: T2, Cys residues in primary human T cells (Homo sapiens, UniProt Q9Y277)
T2 sequence (Q9Y277 1-283): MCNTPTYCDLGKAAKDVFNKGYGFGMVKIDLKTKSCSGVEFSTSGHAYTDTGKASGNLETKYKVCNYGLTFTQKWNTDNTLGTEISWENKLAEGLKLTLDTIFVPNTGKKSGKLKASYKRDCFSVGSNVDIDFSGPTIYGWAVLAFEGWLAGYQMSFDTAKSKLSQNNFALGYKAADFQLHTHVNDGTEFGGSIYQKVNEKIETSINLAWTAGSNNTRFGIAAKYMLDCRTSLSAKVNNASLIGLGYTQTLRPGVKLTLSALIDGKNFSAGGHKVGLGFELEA

[3] = biological target: T3, Cys residues in primary human T cells (Homo sapiens, UniProt Q13045); conditions: FLU Protein flightless-1 homolog C46 (Q13045)
T3 sequence (Q13045 1-1269): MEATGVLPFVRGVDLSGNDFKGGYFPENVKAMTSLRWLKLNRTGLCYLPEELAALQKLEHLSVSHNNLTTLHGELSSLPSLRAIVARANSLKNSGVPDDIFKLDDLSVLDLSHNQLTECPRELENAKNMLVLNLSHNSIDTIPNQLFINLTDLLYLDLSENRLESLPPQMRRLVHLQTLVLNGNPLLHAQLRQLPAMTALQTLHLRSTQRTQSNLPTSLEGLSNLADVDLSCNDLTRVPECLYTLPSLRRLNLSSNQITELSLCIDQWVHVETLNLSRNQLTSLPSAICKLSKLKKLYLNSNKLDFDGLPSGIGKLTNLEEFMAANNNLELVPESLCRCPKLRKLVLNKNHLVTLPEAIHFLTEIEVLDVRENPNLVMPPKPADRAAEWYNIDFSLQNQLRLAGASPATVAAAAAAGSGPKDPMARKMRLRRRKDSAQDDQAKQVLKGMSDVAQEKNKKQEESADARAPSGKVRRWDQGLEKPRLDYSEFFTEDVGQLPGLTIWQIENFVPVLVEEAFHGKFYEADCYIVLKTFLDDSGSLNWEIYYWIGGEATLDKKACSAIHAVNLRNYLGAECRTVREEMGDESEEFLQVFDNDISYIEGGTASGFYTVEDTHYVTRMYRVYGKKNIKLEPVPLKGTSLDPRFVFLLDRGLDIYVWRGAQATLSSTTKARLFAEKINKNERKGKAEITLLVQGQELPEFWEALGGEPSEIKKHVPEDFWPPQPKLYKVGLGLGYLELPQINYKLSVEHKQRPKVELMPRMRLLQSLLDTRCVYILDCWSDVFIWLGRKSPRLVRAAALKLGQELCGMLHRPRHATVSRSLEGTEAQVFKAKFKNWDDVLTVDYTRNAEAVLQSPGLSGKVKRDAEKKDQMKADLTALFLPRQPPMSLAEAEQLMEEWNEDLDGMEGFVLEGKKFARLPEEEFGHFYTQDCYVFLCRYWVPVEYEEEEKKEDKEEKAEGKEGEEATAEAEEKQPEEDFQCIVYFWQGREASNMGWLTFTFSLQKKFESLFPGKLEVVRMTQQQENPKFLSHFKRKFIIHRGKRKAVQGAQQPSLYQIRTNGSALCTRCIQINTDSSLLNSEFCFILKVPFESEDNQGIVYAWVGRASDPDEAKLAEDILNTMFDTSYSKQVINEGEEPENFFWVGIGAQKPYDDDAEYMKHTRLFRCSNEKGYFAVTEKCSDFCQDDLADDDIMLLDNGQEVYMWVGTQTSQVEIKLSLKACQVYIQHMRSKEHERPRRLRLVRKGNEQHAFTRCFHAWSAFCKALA

For `COC(=O)/C=C/C(=O)OC` [DMF, dimethyl fumarate], the “R value (DMSO/DMF)” value ([1]; DMF 50 μM 1h) was 1.97, the “R value (DMSO/DMF)” value ([1]; DMF 50 μM 2h) was 2.66 and the “R value (DMSO/DMF)” value ([1]; DMF 50 μM 4h) was 5.83. The “R value (DMSO/DMF)” value ([2]; VDAC3 C36 (Q9Y277), DMF 50 μM 1h) was 3.21, the “R value (DMSO/DMF)” value ([2]; VDAC3 C36 (Q9Y277), DMF 50 μM 2h) was 3.98 and the “R value (DMSO/DMF)” value ([2]; VDAC3 C36 (Q9Y277), DMF 50 μM 4h) was 4.11. For the same compound, the “R value (DMSO/DMF)” value ([2]; VDAC3 C65 (Q9Y277), DMF 10 μM 4h) was 1.73, the “R value (DMSO/DMF)” value ([2]; VDAC3 C65 (Q9Y277), DMF 25 μM 4h) was 5.64 and the “R value (DMSO/DMF)” value ([2]; VDAC3 C65 (Q9Y277), DMF 50 μM 1h) was 3.35. For the same compound, the “R value (DMSO/DMF)” value ([2]; VDAC3 C65 (Q9Y277), DMF 50 μM 2h) was 7.53, the “R value (DMSO/DMF)” value ([2]; VDAC3 C65 (Q9Y277), DMF 50 μM 4h) was 15.94 and the “R value (DMSO/DMF)” value ([3]; DMF 10 μM 4h) was 1.55. The “R value (DMSO/DMF)” value ([3]; DMF 50 μM 1h) was 2.05, the “R value (DMSO/DMF)” value ([3]; DMF 50 μM 2h) was 3.57 and the “R value (DMSO/DMF)” value ([3]; DMF 50 μM 4h) was 4.5.
